Assay results published in patent publication US12624034B2, “Non-covalent modifiers of AKT1 and uses thereof” (Terremoto Biosciences, Inc., priority 2023, dated 2026).
Where two headings read alike, the source gives them in different places.

What was measured:
[1] = biological target: T1, AKT2 (Homo sapiens, UniProt P31751); experiment: Live cell AKT2 target engagement by NanoBRET competitive probe displacement in HEK293 cells; assay type: binding; conditions: 2 h at 37° C., read-out: AKT2 IC50
T1 construct: expressed in transfected cells; host or cells: HEK293
T1 sequence (P31751 whole entry): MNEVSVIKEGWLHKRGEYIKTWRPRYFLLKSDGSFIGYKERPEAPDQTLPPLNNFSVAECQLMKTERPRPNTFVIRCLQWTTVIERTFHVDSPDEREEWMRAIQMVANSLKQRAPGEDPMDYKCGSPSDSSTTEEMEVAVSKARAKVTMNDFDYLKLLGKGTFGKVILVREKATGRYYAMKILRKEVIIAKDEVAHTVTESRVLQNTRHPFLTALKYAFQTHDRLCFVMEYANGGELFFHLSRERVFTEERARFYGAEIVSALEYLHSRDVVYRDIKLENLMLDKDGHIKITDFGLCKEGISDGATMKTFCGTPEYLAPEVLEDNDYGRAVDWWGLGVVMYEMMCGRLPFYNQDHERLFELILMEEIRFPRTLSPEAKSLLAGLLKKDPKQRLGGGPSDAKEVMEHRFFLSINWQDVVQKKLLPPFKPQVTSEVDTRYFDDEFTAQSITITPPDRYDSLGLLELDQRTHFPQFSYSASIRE

[2] = biological target: T2, AKT1 WT (Homo sapiens, UniProt P31749); experiment: Live cell AKT1 WT target engagement by NanoBRET competitive probe displacement in HEK293 cells; assay type: binding; conditions: 2 h at 37° C., read-out: AKT1 WT IC50
T2 construct: expressed in transfected cells; host or cells: HEK293
T2 sequence (P31749 whole entry): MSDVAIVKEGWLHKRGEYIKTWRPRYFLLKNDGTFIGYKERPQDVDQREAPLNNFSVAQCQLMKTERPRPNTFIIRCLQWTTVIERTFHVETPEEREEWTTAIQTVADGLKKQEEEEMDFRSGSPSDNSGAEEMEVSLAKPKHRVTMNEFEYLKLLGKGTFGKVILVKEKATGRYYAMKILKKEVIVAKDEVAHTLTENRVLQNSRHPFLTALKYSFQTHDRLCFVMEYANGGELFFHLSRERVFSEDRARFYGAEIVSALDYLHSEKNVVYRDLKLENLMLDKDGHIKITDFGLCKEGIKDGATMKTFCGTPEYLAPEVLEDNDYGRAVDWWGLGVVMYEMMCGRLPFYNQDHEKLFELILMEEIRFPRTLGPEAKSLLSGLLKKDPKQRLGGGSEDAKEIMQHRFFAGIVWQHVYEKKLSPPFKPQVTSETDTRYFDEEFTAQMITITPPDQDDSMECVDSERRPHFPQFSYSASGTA

[3] = biological target: T3, AKT1 E17K (Homo sapiens, UniProt P31749, E17K); experiment: Live cell AKT1 E17K target engagement by NanoBRET competitive probe displacement in HEK293 cells; assay type: binding; conditions: 2 h at 37° C.
T3 construct: expressed in transfected cells; host or cells: HEK293
T3 sequence (P31749 whole entry E17K): as the sequence (P31749 whole entry) above, with E17K counted along it
Summary of the method: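 Tracer displacement measured in live HEK293 cells carrying NanoLuciferase-fused kinase. Compound competes with a fluorescently labelled ATP-competitive tracer used near its EC50 over 2 h at 37° C, and IC50 values come from Hill fitting of the 600/460 nm BRET signal.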

[4] = system: LAPC4 prostate cancer cells, which express the AKT1 E17K allele; experiment: Antiproliferative effects in LAPC4 cells (CellTiter Glo, 72 h); assay type: cell-based; conditions: read-out: LAPC4 proliferation IC50
Summary of the method: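 Growth inhibition is gauged by intracellular ATP content, measured with CellTiter Glo 72 h after compound addition to 1,000 seeded cells per well. IC50 derives from a Hill equation fit.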

[5] = NanoBRET live cell target engagement, HEK293 cells
[6] = NanoBRET competitive probe displacement, live HEK293 cells

IC50 [1, 5] | IC50 [2, 5] | IC50 [3, 5] | IC50 ([4]; Homo sapiens, LAPC4, 72 h) | IC50 [1, 6] | IC50 [2, 6] | IC50 [3, 6] | IC50 [4] | SMILES
0.139 µM | 0.0141 µM | 0.0442 µM | 1.16 µM | – | – | – | – | Nc1ncccc1-c1nc2ccc(-n3cccn3)nc2n1-c1ccc2c(c1)CC[C@@H]2NC(=O)c1ccccc1 [Compound 43, (S)—N-(5-(2-(2-aminopyridin-3-yl)-5-(1H-pyrazol-1-yl)-3H-imidazo[4,5-b]pyridin-3-yl)-2,3-dihydro-1H-inden-1-yl)benzamide]
– | – | – | 0.827 µM | 0.194 µM | 0.00539 µM | 0.14 µM | – | Nc1ncccc1-c1nc2ccc(-n3cccn3)nc2n1-c1ccc2c(c1)CC(F)[C@@H]2NC1CCc2cnccc21 (single isomer, unassigned) [Compound 482]
> 10 µM | 0.231 µM | > 1 µM | > 10 µM | – | – | – | – | Nc1ncccc1-c1nc2ccc(-n3cccn3)nc2n1-c1ccc2c(c1)CC[C@@H]2NC1CCN(C(=O)c2cccnc2)CC1 [Compound 359]
0.118 µM | 0.00729 µM | 0.32 µM | 2.6 µM | – | – | – | – | CN(C)c1ccc(F)c(C(=O)N[C@H]2CCc3cc(-n4c(-c5cccnc5N)nc5ccc(-n6cccn6)nc54)ccc32)c1 [Compound 7, N—{(S)-5-[2-(2-amino-3-pyridyl)-5-(1-pyrazolyl)-3H-1,3,4-triazainden-3-yl]-1-indanyl}5-(dimethylamino)-2-fluorobenzamide]
0.207 µM | 0.00684 µM | 0.127 µM | 0.628 µM | – | – | – | – | COc1cc(C(=O)N[C@H]2CCc3cc(-n4c(-c5cccnc5N)nc5ccc(-n6nccn6)nc54)ccc32)ccn1 [Compound 321]
0.222 µM | 0.0103 µM | 0.0496 µM | – | – | – | – | 0.408 µM | Nc1ncccc1-c1nc2ccc(-n3nccn3)nc2n1-c1ccc2c(c1)CC(F)[C@@H]2NC(=O)c1ccc(C(F)F)nc1 (stereo partly shown) [Compound 349]
0.608 µM | 0.0237 µM | 0.0395 µM | 2.23 µM | – | – | – | – | CCc1cn([C@H]2CCc3cc(-n4c(-c5cccnc5N)nc5ccc(-n6cccn6)nc54)ccc32)nn1 [Compound 285]
0.525 µM | 0.0132 µM | 0.0939 µM | 1.26 µM | – | – | – | – | Nc1ncccc1-c1nc2ccc(-n3cccn3)nc2n1-c1ccc2c(c1)CC[C@@H]2n1cnnc1CC1CC1 [Compound 384]
0.0315 µM | 0.0025 µM | 0.0621 µM | 0.741 µM | – | – | – | – | Cc1cc(C(=O)N[C@H]2CCc3cc(-n4c(-c5cccnc5N)nc5ccc(-n6cccn6)nc54)ccc32)cnc1C(F)F [Compound 60, (S)—N-(5-(2-(2-aminopyridin-3-yl)-5-(1H-pyrazol-1-yl)-3H-imidazo[4,5-b]pyridin-3-yl)-2,3-dihydro-1H-inden-1-yl)-6-(difluoromethyl)-5-methylnicotinamide]
0.264 µM | 0.0145 µM | 0.0229 µM | 1.29 µM | – | – | – | – | Nc1ncccc1-c1nc2ccc(-n3cccn3)nc2n1-c1ccc2c(c1)CC[C@@H]2NC(=O)c1cncs1 [Compound 14, (S)—N-(5-(2-(2-aminopyridin-3-yl)-5-(1H-pyrazol-1-yl)-3H-imidazo[4,5-b]pyridin-3-yl)-2,3-dihydro-1H-inden-1-yl)thiazole-5-carboxamide]
0.713 µM | 0.126 µM | 0.137 µM | 8.49 µM | – | – | – | – | Nc1ncccc1-c1nc2ccc(-n3cccn3)nc2n1-c1ccc2c(c1)CC[C@@H]2NC(=O)c1ccc2oncc2c1 [Compound 20, (S)—N-(5-(2-(2-aminopyridin-3-yl)-5-(1H-pyrazol-1-yl)-3H-imidazo[4,5-b]pyridin-3-yl)-2,3-dihydro-1H-inden-1-yl)benzo[d]isoxazole-5-carboxamide]
– | – | – | 3.5 µM | 1.45 µM | 0.0146 µM | 0.145 µM | – | O=C(N[C@H]1CCc2cc(-n3c(-c4ccccc4)nc4ccc(-c5ccn(C6CC6)n5)nc43)ccc21)c1ccc(C(F)F)nc1 [Compound 432]
1.27 µM | 0.0361 µM | 0.138 µM | 6.96 µM | – | – | – | – | Nc1ncccc1-c1nc2ccc(-n3cccn3)nc2n1-c1ccc2c(c1)CC[C@@H]2n1cc(C2CC2(F)F)nn1 (stereo partly shown) [Compound 362]
